Test results: ChEMBL document CHEMBL1201862, “PubChem BioAssay data set” (2004)
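Where inhibition never reached the appropriate level, the endpoint shown equals the highest concentration tested. Otherwise, values were interpolated linearly from a five-concentration, 48-hour dose response in 96-well plates. Abbreviation: GI50, concentration required for 50% inhibition of growth.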 Calls of active or inactive are those of the source. Cut-off read from the data, not from the text of the source: active = GI50 up to about 1.1 µM and inactive = higher.

Legend:
Test in all cases: growth of human tumour cells (NCI), 48 h
[1] = system: TK-10
[2] = system: Malme-3M
[3] = system: SN12C
[4] = system: SW-620
[5] = system: CCRF-CEM
[6] = system: UACC-62
[7] = system: HOP-62
[8] = system: A549
[9] = system: MDA-MB-435
[10] = system: Hs-578T
[11] = system: OVCAR-5
[12] = system: EKVX
[13] = system: IGROV-1
[14] = system: U-251
[15] = system: OVCAR-3
[16] = system: SF-539
[17] = system: HCT-116
[18] = system: MDA-MB-231
[19] = system: HOP-92
[20] = system: SR

Measured: GI50

c1ccc([P+](c2ccccc2)(c2ccccc2)c2ccc(-c3ccc([P+](c4ccccc4)(c4ccccc4)c4ccccc4)cc3)cc2)cc1
inactive: [1] 34.8 µM | [2] 25.3 µM | [3] 26.5 µM | [4] 30.6 µM | [5] 82.4 µM | [6] 56.6 µM | [7] 46.5 µM | [8] 27.7 µM | [9] 26.7 µM | [10] > 100 µM | [11] 67.5 µM | [12] 37 µM | [13] 3.67 µM | [14] 7.94 µM | [15] 15.8 µM | [16] 40 µM | [17] 18.2 µM | [18] 32.8 µM

COc1cc(NS(C)(=O)=O)ccc1Nc1ccnc2ccc3[nH]ccc3c12
inactive: [19] 11.9 µM | [1] 16.3 µM | [2] 14.1 µM | [3] 14.4 µM | [4] 13.3 µM | [5] 10.4 µM | [6] 17.8 µM | [7] 15.8 µM | [8] 18.3 µM | [9] 15.6 µM | [10] 21.3 µM | [11] 16.6 µM | [12] 19.4 µM | [13] 16.1 µM | [14] 14 µM | [15] 15.3 µM | [17] 12.2 µM | [18] 11.6 µM

CCOC(=O)Cc1csc(N/N=C2\C(=O)Nc3ccccc32)n1
inactive: [19] 42.2 µM | [1] > 100 µM | [3] > 100 µM | [4] 48.9 µM | [5] 28.4 µM | [6] 42.2 µM | [7] 36.5 µM | [8] 41.6 µM | [9] 55.6 µM | [10] 56.1 µM | [11] > 100 µM | [12] 32.1 µM | [13] 17.4 µM | [14] 42.4 µM | [15] 25.3 µM | [16] 30.7 µM | [17] 40.1 µM | [18] 43 µM

CCOC(=O)CCC1(CCC(=O)OCC)CCCCCCCCC(CCC(=O)OCC)(CCC(=O)OCC)C(=O)C1=O
inactive: [19] > 100 µM | [1] > 100 µM | [2] > 100 µM | [3] > 100 µM | [4] > 100 µM | [6] > 100 µM | [7] > 100 µM | [8] > 100 µM | [9] > 100 µM | [10] > 100 µM | [11] > 100 µM | [12] > 100 µM | [13] > 100 µM | [14] > 100 µM | [15] > 100 µM | [16] > 100 µM | [20] > 100 µM | [17] > 100 µM

O=C(NCC(C(=O)OCc1ccccc1)C(=O)OCc1ccccc1)OCc1ccccc1
inactive: [19] > 100 µM | [1] > 100 µM | [2] > 100 µM | [3] > 100 µM | [4] > 100 µM | [6] > 100 µM | [7] > 100 µM | [8] 63.8 µM | [9] > 100 µM | [10] > 100 µM | [11] > 100 µM | [12] 72.3 µM | [13] > 100 µM | [14] 85.7 µM | [15] > 100 µM | [16] > 100 µM | [20] 37.9 µM

CCOP(=O)(OCC)OC1CC(n2cc(C)c(=O)n(C)c2=O)OC1CO[Si](C)(C)C(C)(C)C (centres undefined)
inactive: [1] > 100 µM | [2] > 100 µM | [3] 7.06 µM | [4] > 100 µM | [5] 61.2 µM | [6] > 100 µM | [7] 79.6 µM | [8] 55.1 µM | [9] > 100 µM | [10] 46.6 µM | [11] > 100 µM | [12] 24.4 µM | [13] > 100 µM | [14] > 100 µM | [15] > 100 µM | [16] > 100 µM | [20] 37.7 µM | [17] 40.8 µM

O=P1(c2ccccc2)C(c2ccccc2)CCC1c1ccccc1 (centres undefined)
inactive: [19] 45 µM | [1] 71 µM | [3] 34.9 µM | [4] 89.9 µM | [5] 21.4 µM | [6] 50.7 µM | [7] > 100 µM | [8] 65.8 µM | [9] 34.9 µM | [10] > 100 µM | [12] 29.5 µM | [13] 82.6 µM | [15] 53 µM | [16] > 100 µM | [17] 35.6 µM | [18] 42.9 µM

CSc1nc2c(c(N(C)C)n1)C=Nn1c(nc3ccccc31)S2
inactive: [19] 25.7 µM | [1] > 100 µM | [2] 91 µM | [3] > 100 µM | [4] > 100 µM | [6] 83 µM | [7] 84.3 µM | [8] 69 µM | [9] > 100 µM | [10] 41.4 µM | [11] > 100 µM | [13] > 100 µM | [14] > 100 µM | [15] > 100 µM | [17] 57.7 µM | [18] 78.2 µM

CC(C)(C)OC(=O)[C@@H]1CCC(=S)N1Cc1ccccc1
inactive: [19] > 100 µM | [1] > 100 µM | [2] > 100 µM | [3] > 100 µM | [4] > 100 µM | [5] > 100 µM | [6] > 100 µM | [8] > 100 µM | [9] > 100 µM | [11] > 100 µM | [12] 92 µM | [13] > 100 µM | [14] > 100 µM | [15] > 100 µM | [16] > 100 µM | [20] 76.9 µM | [17] > 100 µM | [18] > 100 µM

O=C1CC2(c3ccccc3)ON=C(c3ccccc3)N2c2ccccc2N1 (centres undefined)
inactive: [19] 22.1 µM | [1] 93.5 µM | [2] 44.5 µM | [3] 52.7 µM | [4] 62.4 µM | [5] 42.2 µM | [6] 37.5 µM | [7] 78.7 µM | [9] 20 µM | [11] > 100 µM | [12] 57.1 µM | [13] 58.5 µM | [14] 80.9 µM | [15] 30.8 µM | [16] > 100 µM | [20] 35.6 µM | [17] 34.3 µM | [18] 40.8 µM

Cc1ccc(O)c(C2=NNC(c3cccc(Br)c3)C2)c1 (centres undefined)
inactive: [19] 15.4 µM | [1] > 100 µM | [2] > 100 µM | [3] 52.6 µM | [4] 67.1 µM | [5] 29.3 µM | [6] 35.7 µM | [7] 86.3 µM | [8] 44.5 µM | [9] 19.8 µM | [10] 37.3 µM | [11] > 100 µM | [12] 35.9 µM | [13] 13 µM | [14] 43.7 µM | [15] 62.2 µM | [16] 74.1 µM | [20] 27.8 µM | [17] 40.4 µM
